Entries after “also recorded” stand apart in the source; their conditions may differ.
Legend:
Recombinant EGFR kinase = Recombinant EGFR kinase (Homo sapiens, UniProt P00533); assay: Recombinant EGFR kinase activity; format: biochemical; conditions: read-out: Recombinant EGFR Kinase Activity (%inh at 150 nM)
[1] = system: protein kinases known to regulate the NF-κB pathway; assay: Kinase screening panel as a whole; format: biochemical; conditions: Table S1
From the text: While the EGFR kinase inhibitory activity was largely abolished here, it could not be excluded that our modifications may have generated affinity to another kinase. The most important kinases to be checked were those reported to phosphorylate p65-Ser468 in different cell types, comprising GSK3β, IKKβ, and IKKɛ [45, 46, 47]. In addition, all the kinases described in the literature to control the canonical and non-canonical pathway of NF-κB activation were also included in the screening panel. […] Instead, the inhibitory effect of 19 on the Ser468 phosphorylation might be indirect, e.g., through interference with proteins complexes regulating the Ser468 kinase activity.
(§1) Tabl e S1. Selectivity profiling of compound 19 ag ainst the protein kinases known to regulate the NF-kB pathway ki nase % Inhibiti on at 2 µMa […]
(§2) aScreenings were perf or med as a servi ce at Thermo Fisher Scientific at an ATP concentrat ion of 100 μM. n.i., no inhi biti on. Data represent mean values of duplicat es that differed by less t han 7%.

phospho-IKKα/β = assay: Western blot phospho-IKKα/β in dTHP-1 cells; format: cell-based, human; conditions: 7.5 µM; LPS-stimulated dTHP-1 cells
Method: (§3) Cells were lysed in the commercial RIPA Buffer (Thermo Fisher Scientific, Waltham, MA, USA) and then centrifuged at 14,000× g for 20 min. […] Antibodies used in this study were phospho-NF-κB p65 (S468; catalog no. 3039), phospho-NF-κB p65 (S536; catalog no. 3033), phospho-IKKα/β (catalog no. 2697), and IκB (catalog no. 9242) from Cell Signaling Technology (Beverly, MA, USA); GAPDH from ABclonal (catalog no. A10868; Woburn, MA, USA). The labeled signals were determined using an enhanced chemiluminescence system (UVP, Upland, CA, USA). The experiments were performed at least two times in triplicate, providing basically the same results.
(§4) The dTHP−1 cells were incubated with DMSO (0.1%), 19 (7.5 µM), or CAPE (10 µM) in medium for 3 h and then stimulated with or without LPS (0.1 µg/mL) for another 30 min. (A) The levels of phospho-NF-κB p65 (S536), phospho-IKKα/β, IκB, and GAPDH were determined by Western blot. The normalized (B) phospho-NF-κB p65 (S536), (C) phospho-IKKα/β, and (D) IκB levels were quantified. All data are expressed as mean ± SEM (n = 3); * p < 0.05 compared with the DMSO + LPS group.

phospho-NF-κB p65 (S536) = assay: Western blot phospho-NF-κB p65 (S536) in dTHP-1 cells; format: cell-based, human; conditions: 7.5 µM; LPS-stimulated dTHP-1 cells
Method: as §3, §4

IKBKE (IKK epsilon) = biological target: T1, IKBKE (IKK epsilon) (Homo sapiens, UniProt Q14164); assay: Kinase selectivity profiling (Thermo Fisher); format: biochemical; conditions: ATP 100 μM, mean of duplicates
T1 construct: purchased Thermo Fisher Scientific (screening service)
T1 sequence (Q14164 whole entry): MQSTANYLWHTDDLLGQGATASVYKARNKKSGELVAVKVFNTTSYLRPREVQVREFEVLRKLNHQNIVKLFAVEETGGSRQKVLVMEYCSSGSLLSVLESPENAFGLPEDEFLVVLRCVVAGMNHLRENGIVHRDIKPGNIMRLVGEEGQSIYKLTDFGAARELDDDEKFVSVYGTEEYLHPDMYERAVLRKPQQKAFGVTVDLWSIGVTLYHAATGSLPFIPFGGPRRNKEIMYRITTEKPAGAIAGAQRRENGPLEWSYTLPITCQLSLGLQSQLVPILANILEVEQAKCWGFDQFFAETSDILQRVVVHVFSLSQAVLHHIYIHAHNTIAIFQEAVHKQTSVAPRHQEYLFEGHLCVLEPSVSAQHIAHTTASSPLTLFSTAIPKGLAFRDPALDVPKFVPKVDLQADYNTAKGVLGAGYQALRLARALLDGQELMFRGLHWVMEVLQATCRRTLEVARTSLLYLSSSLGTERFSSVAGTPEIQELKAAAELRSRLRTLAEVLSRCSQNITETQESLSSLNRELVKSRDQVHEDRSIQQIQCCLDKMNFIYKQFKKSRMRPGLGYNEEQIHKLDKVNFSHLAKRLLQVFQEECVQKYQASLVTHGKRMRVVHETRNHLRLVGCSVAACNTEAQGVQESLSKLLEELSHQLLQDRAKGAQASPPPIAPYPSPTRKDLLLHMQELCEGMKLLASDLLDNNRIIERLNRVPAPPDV
Method: as §1, §2

[2] = biological target: T2, MAP3K7/MAP3K7IP1 (TAK1-TAB1) (Homo sapiens, UniProt O43318); assay: Kinase selectivity profiling (Thermo Fisher); format: biochemical; conditions: ATP 100 μM, mean of duplicates
T2 construct: purchased Thermo Fisher Scientific (screening service)
Method: as §1, §2

GSK3B (GSK3 beta) = biological target: T3, GSK3B (GSK3 beta) (Homo sapiens, UniProt P49841); assay: Kinase selectivity profiling (Thermo Fisher); format: biochemical; conditions: ATP 100 μM, mean of duplicates
T3 construct: purchased Thermo Fisher Scientific (screening service)
Method: as §1, §2

RIPK2 = biological target: T4, RIPK2 (Homo sapiens, UniProt O43353); assay: Kinase selectivity profiling (Thermo Fisher); format: biochemical; conditions: ATP 100 μM, mean of duplicates
T4 construct: purchased Thermo Fisher Scientific (screening service)
Method: as §1, §2

MAPK14 (p38 alpha) = biological target: T5, MAPK14 (p38 alpha) (Homo sapiens, UniProt Q16539); assay: Kinase selectivity profiling (Thermo Fisher); format: biochemical; conditions: ATP 100 μM, mean of duplicates
T5 construct: purchased Thermo Fisher Scientific (screening service)
T5 sequence (Q16539 whole entry): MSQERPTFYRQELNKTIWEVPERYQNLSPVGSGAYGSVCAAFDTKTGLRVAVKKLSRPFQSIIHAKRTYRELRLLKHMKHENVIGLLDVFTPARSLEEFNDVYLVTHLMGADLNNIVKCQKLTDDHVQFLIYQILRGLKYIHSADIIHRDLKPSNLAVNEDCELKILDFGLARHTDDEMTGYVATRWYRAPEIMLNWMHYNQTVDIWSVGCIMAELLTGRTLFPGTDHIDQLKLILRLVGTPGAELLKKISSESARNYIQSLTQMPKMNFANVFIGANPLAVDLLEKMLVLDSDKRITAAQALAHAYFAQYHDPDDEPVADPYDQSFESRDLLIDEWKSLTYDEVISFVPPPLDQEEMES
Method: as §1, §2

PRKCI (PKC iota) = biological target: T6, PRKCI (PKC iota) (Homo sapiens, UniProt P41743); assay: Kinase selectivity profiling (Thermo Fisher); format: biochemical; conditions: ATP 100 μM, n.i. = no inhibition
T6 construct: purchased Thermo Fisher Scientific (screening service)
T6 sequence (P41743 whole entry): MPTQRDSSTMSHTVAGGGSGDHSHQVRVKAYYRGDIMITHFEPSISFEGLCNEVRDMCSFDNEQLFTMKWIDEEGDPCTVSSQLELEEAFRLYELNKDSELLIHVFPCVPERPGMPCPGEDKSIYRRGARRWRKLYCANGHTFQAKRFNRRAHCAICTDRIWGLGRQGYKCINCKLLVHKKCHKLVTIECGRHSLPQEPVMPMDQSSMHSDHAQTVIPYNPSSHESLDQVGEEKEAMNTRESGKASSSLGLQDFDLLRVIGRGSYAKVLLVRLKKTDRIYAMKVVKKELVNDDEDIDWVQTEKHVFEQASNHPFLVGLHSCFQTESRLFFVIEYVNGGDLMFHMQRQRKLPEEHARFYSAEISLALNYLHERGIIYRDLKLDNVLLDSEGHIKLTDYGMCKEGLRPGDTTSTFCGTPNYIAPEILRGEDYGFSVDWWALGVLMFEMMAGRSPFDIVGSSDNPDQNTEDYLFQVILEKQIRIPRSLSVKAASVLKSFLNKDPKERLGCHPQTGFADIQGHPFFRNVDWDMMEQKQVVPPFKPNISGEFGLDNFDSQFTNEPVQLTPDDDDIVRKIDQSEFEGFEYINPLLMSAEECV
Method: as §1, §2

PRKCQ (PKC theta) = biological target: T7, PRKCQ (PKC theta) (Homo sapiens, UniProt Q04759); assay: Kinase selectivity profiling (Thermo Fisher); format: biochemical; conditions: ATP 100 μM, n.i. = no inhibition
T7 construct: purchased Thermo Fisher Scientific (screening service)
T7 sequence (Q04759 whole entry): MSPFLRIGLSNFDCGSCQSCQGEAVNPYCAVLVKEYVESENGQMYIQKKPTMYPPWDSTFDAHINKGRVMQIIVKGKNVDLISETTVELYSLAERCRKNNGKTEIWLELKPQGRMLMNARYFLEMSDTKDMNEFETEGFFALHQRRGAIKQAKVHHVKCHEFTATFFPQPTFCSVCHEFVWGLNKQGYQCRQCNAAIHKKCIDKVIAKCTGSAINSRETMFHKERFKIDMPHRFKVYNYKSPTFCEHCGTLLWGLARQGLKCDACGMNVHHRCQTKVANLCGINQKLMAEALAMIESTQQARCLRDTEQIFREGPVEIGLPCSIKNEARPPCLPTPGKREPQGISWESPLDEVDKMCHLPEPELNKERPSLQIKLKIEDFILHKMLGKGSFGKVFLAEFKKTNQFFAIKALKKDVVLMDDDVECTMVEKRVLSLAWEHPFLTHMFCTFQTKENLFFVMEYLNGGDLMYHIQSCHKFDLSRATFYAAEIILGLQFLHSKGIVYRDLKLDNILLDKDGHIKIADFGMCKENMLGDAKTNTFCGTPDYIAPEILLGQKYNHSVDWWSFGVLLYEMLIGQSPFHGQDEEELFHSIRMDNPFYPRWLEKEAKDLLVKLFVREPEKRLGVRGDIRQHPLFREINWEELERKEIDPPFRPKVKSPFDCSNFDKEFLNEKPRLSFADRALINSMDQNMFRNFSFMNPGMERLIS
Method: as §1, §2

TBK1 = biological target: T8, TBK1 (Homo sapiens, UniProt Q9UHD2); assay: Kinase selectivity profiling (Thermo Fisher); format: biochemical; conditions: ATP 100 μM, mean of duplicates
T8 construct: purchased Thermo Fisher Scientific (screening service)
Method: as §1, §2

PRKCZ (PKC zeta) = biological target: T9, PRKCZ (PKC zeta) (Homo sapiens, UniProt Q05513); assay: Kinase selectivity profiling (Thermo Fisher); format: biochemical; conditions: ATP 100 μM, mean of duplicates
T9 construct: purchased Thermo Fisher Scientific (screening service)
Method: as §1, §2

IRAK1 = biological target: T10, IRAK1 (Homo sapiens, UniProt P51617); assay: Kinase selectivity profiling (Thermo Fisher); format: biochemical; conditions: ATP 100 μM, mean of duplicates
T10 construct: purchased Thermo Fisher Scientific (screening service)
T10 sequence (P51617 whole entry): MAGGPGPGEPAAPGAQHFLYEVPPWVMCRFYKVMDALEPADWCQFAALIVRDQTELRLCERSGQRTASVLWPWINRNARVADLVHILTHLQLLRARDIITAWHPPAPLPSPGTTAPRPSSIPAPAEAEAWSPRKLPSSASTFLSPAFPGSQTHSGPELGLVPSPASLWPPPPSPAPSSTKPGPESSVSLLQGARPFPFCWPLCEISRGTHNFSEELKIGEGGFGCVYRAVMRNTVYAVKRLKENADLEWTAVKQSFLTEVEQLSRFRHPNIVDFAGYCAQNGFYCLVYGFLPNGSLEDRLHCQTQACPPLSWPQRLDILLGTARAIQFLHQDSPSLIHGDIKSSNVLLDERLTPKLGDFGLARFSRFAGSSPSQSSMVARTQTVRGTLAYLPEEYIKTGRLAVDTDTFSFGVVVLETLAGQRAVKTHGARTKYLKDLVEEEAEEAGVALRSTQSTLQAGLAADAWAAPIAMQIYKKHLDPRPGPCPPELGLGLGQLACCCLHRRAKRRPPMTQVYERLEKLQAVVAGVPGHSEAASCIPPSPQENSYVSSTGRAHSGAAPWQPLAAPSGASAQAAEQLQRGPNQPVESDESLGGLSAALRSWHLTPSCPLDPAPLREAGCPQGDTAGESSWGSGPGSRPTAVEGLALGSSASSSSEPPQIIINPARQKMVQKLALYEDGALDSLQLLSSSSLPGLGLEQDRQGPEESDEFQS
Method: as §1, §2

CHUK (IKK alpha) = biological target: T11, CHUK (IKK alpha) (Homo sapiens, UniProt O15111); assay: Kinase selectivity profiling (Thermo Fisher); format: biochemical; conditions: ATP 100 μM, mean of duplicates
T11 construct: purchased Thermo Fisher Scientific (screening service)
T11 sequence (O15111 whole entry): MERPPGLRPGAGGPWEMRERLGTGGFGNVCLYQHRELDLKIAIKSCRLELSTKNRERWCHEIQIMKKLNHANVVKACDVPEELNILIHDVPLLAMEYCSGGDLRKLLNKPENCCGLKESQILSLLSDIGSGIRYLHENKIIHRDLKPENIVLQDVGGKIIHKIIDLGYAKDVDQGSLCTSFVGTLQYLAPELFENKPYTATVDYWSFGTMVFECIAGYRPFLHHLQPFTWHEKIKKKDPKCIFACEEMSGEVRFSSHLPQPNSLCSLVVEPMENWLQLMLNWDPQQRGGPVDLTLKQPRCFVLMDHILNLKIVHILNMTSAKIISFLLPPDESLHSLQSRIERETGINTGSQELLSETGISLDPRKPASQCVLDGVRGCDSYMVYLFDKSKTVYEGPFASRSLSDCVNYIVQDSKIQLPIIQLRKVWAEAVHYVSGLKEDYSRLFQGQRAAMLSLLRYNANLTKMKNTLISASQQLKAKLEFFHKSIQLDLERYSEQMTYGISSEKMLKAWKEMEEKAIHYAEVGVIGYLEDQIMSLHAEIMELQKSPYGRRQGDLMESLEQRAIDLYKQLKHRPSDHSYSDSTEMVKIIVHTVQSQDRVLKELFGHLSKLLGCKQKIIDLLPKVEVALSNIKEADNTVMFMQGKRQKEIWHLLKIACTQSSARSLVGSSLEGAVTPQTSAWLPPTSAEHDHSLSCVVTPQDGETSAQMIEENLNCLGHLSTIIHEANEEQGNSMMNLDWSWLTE
Method: as §1, §2

Sequence of Recombinant EGFR kinase (P00533 25-1210): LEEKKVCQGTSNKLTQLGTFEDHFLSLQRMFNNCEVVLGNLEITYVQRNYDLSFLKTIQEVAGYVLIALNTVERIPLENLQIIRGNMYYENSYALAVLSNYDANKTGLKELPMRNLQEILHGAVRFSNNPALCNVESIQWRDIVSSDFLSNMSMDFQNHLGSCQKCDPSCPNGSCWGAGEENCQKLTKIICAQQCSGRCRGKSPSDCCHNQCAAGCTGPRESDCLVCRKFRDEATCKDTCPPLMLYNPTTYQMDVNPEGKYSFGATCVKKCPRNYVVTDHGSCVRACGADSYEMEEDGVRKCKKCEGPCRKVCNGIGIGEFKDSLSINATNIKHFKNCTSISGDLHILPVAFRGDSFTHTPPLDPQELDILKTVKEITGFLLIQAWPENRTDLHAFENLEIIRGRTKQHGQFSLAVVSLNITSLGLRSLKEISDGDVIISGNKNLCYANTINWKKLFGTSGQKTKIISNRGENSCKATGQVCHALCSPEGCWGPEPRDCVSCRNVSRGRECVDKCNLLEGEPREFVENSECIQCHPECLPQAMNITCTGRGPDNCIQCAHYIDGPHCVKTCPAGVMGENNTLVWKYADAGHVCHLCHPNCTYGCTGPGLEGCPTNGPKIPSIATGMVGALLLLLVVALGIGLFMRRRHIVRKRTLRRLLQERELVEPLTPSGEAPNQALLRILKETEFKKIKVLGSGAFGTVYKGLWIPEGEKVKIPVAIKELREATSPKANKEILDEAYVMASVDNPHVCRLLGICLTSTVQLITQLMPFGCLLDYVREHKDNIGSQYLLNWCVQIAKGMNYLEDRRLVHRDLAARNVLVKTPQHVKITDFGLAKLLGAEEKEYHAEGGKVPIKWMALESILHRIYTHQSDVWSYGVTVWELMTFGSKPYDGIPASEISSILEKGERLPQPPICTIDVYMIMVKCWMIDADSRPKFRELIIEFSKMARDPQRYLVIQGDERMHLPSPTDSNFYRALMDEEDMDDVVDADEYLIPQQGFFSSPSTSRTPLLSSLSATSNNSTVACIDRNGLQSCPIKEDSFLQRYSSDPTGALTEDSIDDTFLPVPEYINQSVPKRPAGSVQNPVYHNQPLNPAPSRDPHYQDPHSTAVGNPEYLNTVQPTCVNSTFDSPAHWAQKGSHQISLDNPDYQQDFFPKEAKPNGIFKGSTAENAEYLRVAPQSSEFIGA

inhibition at 0.15 µM (Recombinant EGFR kinase): 23%
inhibition at 2 µM (IKBKE (IKK epsilon)): 3%
inhibition at 2 µM [2]: 3%
inhibition at 2 µM (GSK3B (GSK3 beta)): 4%
inhibition at 2 µM (RIPK2): 29%
inhibition at 2 µM (MAPK14 (p38 alpha)): 4%
% Inhibition at 2 µM, PRKCI (PKC iota) (PRKCI (PKC iota)): n.i.
% Inhibition at 2 µM, PRKCQ (PKC theta) (PRKCQ (PKC theta)): n.i.
inhibition at 2 µM (TBK1): 8%
inhibition at 2 µM (PRKCZ (PKC zeta)): 3%
inhibition at 2 µM (IRAK1): 2%
inhibition at 2 µM (CHUK (IKK alpha)): 6%
Structure (SMILES): S=C(Nc1ccc2ncnc(Nc3cccc(Cl)c3)c2c1)NC1CCCC1 [Compound 19, 1-(4-((3-Chlorophenyl)amino)quinazolin-6-yl)-3-cyclopentylthiourea]
Inhibition of kinases involved in NF-κB activation (panel) [1]: did not appreciably inhibit any of these kinases
Activation of IKKα/β (phospho-IKKα/β) (phospho-IKKα/β): had no effects on IKKα/β-IκB signaling; also recorded: neither blocked the activation of IKKα/β
Phosphorylation of p65 at Ser536 (phospho-NF-κB p65 (S536)): not affected
